In brackets after ≈: the same amount, converted by molar mass. Where two headings read alike, the source gives them in different places. One block for each compound: values may come before it.
Tests used:
[1] = tested on: E. faecium ATCC 35667; assay: MIC and MBC testing, broth microdilution; format: cell-based, Enterococcus faecium; conditions: Enterococcus faecium
Outline: (§1)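 Controls comprised levofloxacin (positive) and 0.1% DMSO (negative). Compounds, serially halved in MH broth, met log-phase cells pre-diluted to 1 × 10^6 CFU/mL; after an 18 h, 37 °C incubation, absence of visible growth defined the MIC, triplicate per concentration.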

[2] = tested on: S. aureus ATCC 29213; assay: MIC and MBC testing, broth microdilution; format: cell-based, Staphylococcus aureus; conditions: Staphylococcus aureus
Outline: as §1

[3] = tested on: K. pneumoniae ATCC 700603; assay: MIC and MBC testing, broth microdilution; format: cell-based, Klebsiella pneumoniae; conditions: Klebsiella pneumoniae
Outline: as §1

[4] = tested on: A. baumannii ATCC 19606; assay: MIC and MBC testing, broth microdilution; format: cell-based, Acinetobacter baumannii; conditions: Acinetobacter baumannii
Outline: as §1

[5] = tested on: P. aeruginosa ATCC 27853; assay: MIC and MBC testing, broth microdilution; format: cell-based, Pseudomonas aeruginosa; conditions: Pseudomonas aeruginosa
Outline: as §1

[6] = tested on: E. coli ATCC 25922; assay: MIC and MBC testing, broth microdilution; format: cell-based, Escherichia coli; conditions: Escherichia coli
Outline: as §1

[7] = tested on: MRSA-1; assay: MIC and MBC testing, broth microdilution; format: cell-based, Staphylococcus aureus; conditions: Staphylococcus aureus; for MIC: 18 h
Outline: (§2)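 Log-phase cultures, adjusted to 1 × 10^6 CFU/mL in MH broth, are exposed to twofold serial compound dilutions and held at 37 °C for 18 h. Triplicate per concentration; both inhibitory and bactericidal endpoints are taken.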

[8] = tested on: MRSA-2; assay: MIC and MBC testing, broth microdilution; format: cell-based, Staphylococcus aureus; conditions: Staphylococcus aureus; for MIC: 18 h
Outline: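 Strains grown to logarithmic phase were diluted to 1 × 10^6 CFU/mL, combined with compound two-fold dilution series in MH broth, and incubated at 37 °C for 18 h. MIC and MBC were then recorded, with triplicate wells per concentration.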

[9] = tested on: clinical S. aureus isolate LMY45; assay: MIC and MBC testing, broth microdilution; format: cell-based, Staphylococcus aureus; conditions: Staphylococcus aureus; for MIC: 18 h
Outline: as §2

[10] = tested on: clinical S. aureus isolate LMY46; assay: MIC and MBC testing, broth microdilution; format: cell-based, Staphylococcus aureus; conditions: Staphylococcus aureus; for MIC: 18 h
Outline: as §2

[11] = tested on: clinical S. aureus isolate LMY47; assay: MIC and MBC testing, broth microdilution; format: cell-based, Staphylococcus aureus; conditions: Staphylococcus aureus; for MIC: 18 h
Outline: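 Triplicate broth microdilution: MH broth, serial 2× dilution of compounds dissolved in DMSO, 1 × 10^6 CFU/mL bacteria grown to log phase, 18 h at 37 °C, followed by MBC determination.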

[12] = tested on: clinical S. aureus isolate LMY48; assay: MIC and MBC testing, broth microdilution; format: cell-based, Staphylococcus aureus; conditions: Staphylococcus aureus; for MIC: 18 h
Outline: as §2

[13] = tested on: MRSA; assay: MIC testing, summary over MRSA strains; format: cell-based; conditions: Staphylococcus aureus; against MRSA
Procedure: (§3) The minimum inhibitory concentration (MIC) of all synthesized compounds was tested by the broth microdilution method. In brief, compounds dissolved in DMSO were diluted twice continuously in a 96-well plate with MH broth. The ESKAPE pathogens (E. coli ATCC 25922, S. aureus ATCC 29213, K. pneumoniae ATCC 700603, A. baumannii ATCC 19606, P. aeruginosa ATCC 27853, and E. faecium ATCC 35667), clinical S. aureus isolates (LMY45, LMY46, LMY47, and LMY48) and methicillin-resistant Staphylococcus aureus (MRSA-1 and MRSA-2) were cultured in MH broth to logarithmic growth phase and then diluted to 1 × 10^6 CFU/mL in MH broth. Subsequently, the diluted bacterial solution was mixed with the diluted compound solution in a 96-well plate and incubated at 37 °C for a duration of 18 h. The MIC of the compounds was recorded as the lowest concentration at which no visible growth was observed. […] Each concentration was replicated thrice.

[14] = tested on: S. aureus, including MRSA; assay: MIC testing, summary over S. aureus strains; format: cell-based; conditions: Staphylococcus aureus
Procedure: as §3

[15] = tested on: MRSA-2 biofilm; assay: Biofilm elimination assay (crystal violet); format: cell-based, Staphylococcus aureus; conditions: at the test concentration
Procedure: The ability of 2D to eliminate biofilm was evaluated. MRSA-2 (1 × 10^6 CFU/mL) was incubated in 96-well plates for 24 h until biofilm formation. The planktonic bacteria were discarded and washed thrice with PBS. […] According to the above method, the OD575 nm value was detected after the following steps: PBS washing, methanol fixation, crystal violet staining, and ethanol incubation.

[16] = tested on: MRSA-2 biofilm; assay: Biofilm formation inhibition assay (crystal violet); format: cell-based, Staphylococcus aureus; conditions: Staphylococcus aureus, MRSA, 24 h, read-out: inhibition rate of biofilm formation
Procedure: The effect of 2D on the biofilm formation of MRSA was evaluated. MRSA-2 was cultured in MH broth for a period of 3–5 h, after which it was diluted to a density of 1 × 10^6 CFU/mL with MH broth. […] After the removal of the suspended bacteria, the well plates were washed thrice with PBS. Then, 150 μL of methanol was added and fixed for 30 min. Subsequent to air-drying, 150 μL of a 0.1% crystal violet aqueous solution was added. Following a 15 min staining period, the excess crystal violet was removed by rinsing with flowing water. Finally, 150 μL of anhydrous ethanol was added and the mixture was incubated for 20 min. The optical density at 575 nm was detected.

[17] = tested on: MRSA-2; assay: MRSA-induced mouse skin abscess model; format: in vivo
From the text: The MRSA-induced mouse skin abscess model was used to assess the in vivo antibacterial effects of 2D. Female KM mice, aged 4–6 weeks and weighing 20 ± 2 g, were purchased from the Laboratory Animal Center, Lanzhou Institute of Veterinary Medicine, Chinese Academy of Agricultural Sciences. The animal experiments were approved by the Ethics Committee of Research Involving Animals of the Lanzhou Institute of Husbandry and Pharmaceutical Science of CAAS (Approval number: 2025-03) and performed in accordance with the guidelines of the Ethics Committee for Animal Experiments. Prior to the formal experiment, all mice were acclimated for 5 days. The mice were kept in a pathogen-free environment with a 12 h light/12 h dark cycle, 50% ± 10% humidity, and a temperature of 24 °C ± 2 °C. […] The depilation method employed was as follows: depilatory paste was applied to the designated area for 10 min, after which it was thoroughly washed with 0.9% saline. The mice were semi-anesthetized by intraperitoneal injection with sodium Ulatan (TCI, 20%, 100 μL). […] After a 24 h interval, the administration was repeated, and 24 h after the last administration, the volume of abscess was measured and calculated. Then, the skin of the infected site and main organs were collected for tissue bacterial load and pathological detection.

[18] = tested on: MRSA-2; assay: Growth curve (OD600); format: cell-based, Staphylococcus aureus; conditions: 2D 0.5, 1, 2, 4, 8 µg/mL, vancomycin 0.5 and 1 μg/mL
Procedure: (§4) The growth inhibition and time-dependent killing abilities of 2D were evaluated against S. aureus (ATCC 29213) and MRSA-2. After culturing the strains in MH broth until the logarithmic growth phase, they were diluted with MH broth to 1 × 10^6 CFU/mL. […] OD600 values were measured at predetermined time intervals (0, 1, 2, 4, 6, 8, 10, 12, and 24 h).

[19] = tested on: S. aureus (ATCC 29213); assay: Growth curve (OD600); format: cell-based, Staphylococcus aureus; conditions: 2D 0.5, 1, 2, 4, 8 µg/mL, vancomycin 0.5 and 1 μg/mL
Procedure: as §4

[20] = tested on: MRSA-2; assay: Fluorescence microscopy assay (DAPI/PI); format: cell-based, Staphylococcus aureus; conditions: vancomycin 4 µg/mL; 2D 4 and 8 μg/mL; 2 h
Procedure: MRSA-2 was cultivated to the logarithmic growth phase, then washed with PBS and resuspended in PBS until the concentration of bacterial suspension reached 1 × 10^8 CFU/mL. […] Thereafter, the samples were incubated with DAPI (10 μM) and PI (10 μM) in the dark for 15 min. The bacterial cells were then subjected to observation under a fluorescence microscope. DMSO served as the negative controls.

- MIC ([1]; ATCC35667, E. faecium ATCC 35667, 18 h, read-out: MIC): 8 µg/mL (≈ 27.9 µM)
- MIC ([2]; ATCC29213, S. aureus ATCC 29213, 18 h, read-out: MIC): 4 µg/mL (≈ 14 µM)
- MIC ([3]; ATCC700603, 18 h, read-out: MIC): 32 µg/mL (≈ 112 µM)
- MIC ([4]; ATCC19606, 18 h, read-out: MIC): 16 µg/mL (≈ 55.9 µM)
- MIC ([5]; ATCC27853, 18 h, read-out: MIC): 32 µg/mL (≈ 112 µM)
- MIC ([6]; ATCC25922, 18 h, read-out: MIC): 16 µg/mL (≈ 55.9 µM)
- MIC ([7]; MRSA-1, read-out: MIC): 2 µg/mL (≈ 6.98 µM)
- MIC ([8]; MRSA-2, read-out: MIC): 1 µg/mL (≈ 3.49 µM)
- MIC ([9]; LMY45, read-out: MIC): 2 µg/mL (≈ 6.98 µM)
- MIC ([10]; LMY46, read-out: MIC): 2 µg/mL (≈ 6.98 µM)
- MIC ([11]; LMY47, read-out: MIC): 2 µg/mL (≈ 6.98 µM)
- MIC ([12]; LMY48, read-out: MIC): 1 µg/mL (≈ 3.49 µM)
- MIC [13]: 1 to 2 µg/mL (≈ 3.49 to 6.98 µM)
- MIC [14]: 0.5 to 4 µg/mL (≈ 1.75 to 14 µM)
Compound: [H]/N=C(\N)NN=C1CCCc2cc(OCC=C(C)C)ccc21 [Compound 2I, (E)-2-(6-((3-methylbut-2-en-1-yl)oxy)-3,4-dihydronaphthalen-1(2H)-ylidene)hydrazine-1-carboximidamide]
- MBC ([1]; ATCC35667, E. faecium ATCC 35667, read-out: MBC): 32 µg/mL (≈ 112 µM)
- MBC ([2]; ATCC29213, S. aureus ATCC 29213, read-out: MBC): 32 µg/mL (≈ 112 µM)
- MBC ([3]; ATCC700603, read-out: MBC): > 32 µg/mL
- MBC ([4]; ATCC19606, read-out: MBC): 32 µg/mL (≈ 112 µM)
- MBC ([5]; ATCC27853, read-out: MBC): 32 µg/mL (≈ 112 µM)
- MBC ([6]; ATCC25922, read-out: MBC): 32 µg/mL (≈ 112 µM)
- MBC ([7]; MRSA-1, read-out: MBC): 16 µg/mL (≈ 55.9 µM)
- MBC ([8]; MRSA-2, read-out: MBC): 2 µg/mL (≈ 6.98 µM)
- MBC ([9]; LMY45, read-out: MBC): 4 µg/mL (≈ 14 µM)
- MBC ([10]; LMY46, read-out: MBC): 2 µg/mL (≈ 6.98 µM)
- MBC ([11]; LMY47, read-out: MBC): 8 µg/mL (≈ 27.9 µM)
- MBC ([12]; LMY48, read-out: MBC): 2 µg/mL (≈ 6.98 µM)

Compound: CN[C@H](CC(C)C)C(=O)N[C@H]1C(=O)N[C@@H](CC(N)=O)C(=O)N[C@H]2C(=O)N[C@H]3C(=O)N[C@H](C(=O)N[C@H](C(=O)O)c4cc(O)cc(O)c4-c4cc3ccc4O)[C@H](O)c3ccc(c(Cl)c3)Oc3cc2cc(c3O[C@@H]2O[C@H](CO)[C@@H](O)[C@H](O)[C@H]2O[C@H]2C[C@](C)(N)[C@H](O)[C@H](C)O2)Oc2ccc(cc2Cl)[C@H]1O [Vancomycin, reference compound]
- MBC ([1]; ATCC35667): 16 µg/mL (≈ 11 µM)
- MIC ([1]; ATCC35667, 18 h): 2 µg/mL (≈ 1.38 µM)
- MBC ([2]; ATCC29213): 4 µg/mL (≈ 2.76 µM)
- MIC ([2]; ATCC29213, 18 h): 1 µg/mL (≈ 0.69 µM)
- MBC ([7]; MRSA): 4 µg/mL (≈ 2.76 µM)
- MIC ([7]; MRSA): 1 µg/mL (≈ 0.69 µM)
- MBC ([8]; MRSA): 2 µg/mL (≈ 1.38 µM)
- MIC ([8]; MRSA): 1 µg/mL (≈ 0.69 µM)
- MBC [9]: 2 µg/mL (≈ 1.38 µM)
- MIC [9]: 0.5 µg/mL (≈ 0.345 µM)
- MBC [10]: 8 µg/mL (≈ 5.52 µM)
- MIC [10]: 1 µg/mL (≈ 0.69 µM)
- MBC [11]: 2 µg/mL (≈ 1.38 µM)
- MIC [11]: 1 µg/mL (≈ 0.69 µM)
- MBC [12]: 2 µg/mL (≈ 1.38 µM)
- MIC [12]: 1 µg/mL (≈ 0.69 µM)
- biofilm elimination [15]: unable to completely eliminate the biofilm
- inhibition at 0.25 µg/mL [16]: ~18.5%
- inhibition at 0.5 µg/mL [16]: ~37.8%
- purulent lesions at the infection site (skin histopathology) ([17]; 5 mg/kg): significantly smaller
- volume of skin abscess ([17]; 5 mg/kg, injected 2 h and 24 h postinfection, compared to model and solvent group): reduced volume
- bacterial load of the skin at the infected site ([17]; 2D 5 and 10 mg/kg, vancomycin 5 mg/kg, compared with model and solvent group): significantly reduced
- histopathology of the major organs ([17]; infected mice after treatment, H&E): no discernible lesions
- growth inhibition (growth curve) [18]: failed to completely inhibit the growth
- growth inhibition (growth curve) [19]: failed to completely inhibit the growth
- PI red fluorescence (damaged membranes) [20]: a very small amount of red fluorescence
